The record followed here is article PMC6270614 (Molecules, 2013).

For data set [1], the target named is human cannabinoid CB1 receptor (Homo sapiens, UniProt P21554). The experiment in a line: CB1 receptor radioligand ([3H]CP-55,940) displacement binding assay. The following applies: for inhibition at 1 µM: read-out: displacement of [3H]CP-55,940 in the preliminary screen (printed in the CB1 Ki column). Here is the method:
In all cases, Ki values were calculated by applying the Cheng-Prusoff equation [34] to the IC50 values (obtained by GraphPad, GraphPad Software, Inc., La Jolla, CA, USA) for the displacement of the bound radioligand by increasing concentrations of the test compounds (after three separate experiments for each compound).

[2] abbreviates: Experimental activity (pIC50, M), CoMFA training and test set input.
The mark [3] stands for this setting: CB1 (Ki, nM), displacement of 0.5 nM [3H]CP-55,940, means ± SEM, n = 3, Cheng-Prusoff from IC50.
[4] abbreviates: IC50 (CB1 displacement), displacement of [3H]CP-55,940.
[5] abbreviates: CoMFA training and test set input, read-out: Experimental activity (pIC50) (converted).

Read-outs that look alike come from different tables or passages of the source.

Chain of human cannabinoid CB1 receptor (P21554 whole entry): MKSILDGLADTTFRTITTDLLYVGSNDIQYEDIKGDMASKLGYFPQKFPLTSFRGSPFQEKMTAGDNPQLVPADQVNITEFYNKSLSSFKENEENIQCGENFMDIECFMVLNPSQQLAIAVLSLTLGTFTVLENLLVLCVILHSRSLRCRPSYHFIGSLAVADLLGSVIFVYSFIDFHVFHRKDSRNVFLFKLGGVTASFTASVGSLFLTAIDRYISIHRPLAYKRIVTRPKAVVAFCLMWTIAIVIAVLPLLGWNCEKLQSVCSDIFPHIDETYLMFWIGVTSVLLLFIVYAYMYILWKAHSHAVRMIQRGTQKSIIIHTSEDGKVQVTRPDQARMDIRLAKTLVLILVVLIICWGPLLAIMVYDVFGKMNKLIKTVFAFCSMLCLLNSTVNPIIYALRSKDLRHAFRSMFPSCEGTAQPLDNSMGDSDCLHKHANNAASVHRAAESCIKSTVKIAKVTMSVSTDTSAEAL

On to `O=C(c1cccc2ccccc12)n1c(-c2ccccn2)nc2ccccc21` [Compound 10, Naphthalen-1-yl(2-(pyridin-2-yl)-1H-benzo[d]imidazol-1-yl)methanone], for which, in data set [1], the inhibition at 1 µM was less than 50%.
What is called melting point is the temperature, or range, at which the solid turns liquid. `O=C(c1cccc2ccccc12)n1c(-c2ccccn2)nc2cc(F)ccc21` [Compound 11, (5-Fluoro-2-(pyridin-2-yl)-1H-benzo[d]imidazol-1-yl)(naphthalen-1-yl)methanone] gave a melting point of 167.2 to 167.9 °C. Further, in data set [1], the inhibition at 1 µM is less than 50%.
With `O=C(c1cccc2ccccc12)n1c(-c2ccccn2)nc2ccc(F)cc21` [Compound 12, (6-Fluoro-2-(pyridin-2-yl)-1H-benzo[d]imidazol-1-yl)(naphthalen-1-yl)methanone], the melting point lay in the range of 177.2 to 178 °C. The inhibition at 1 µM in data set [1] is less than 50%.
Turning to `Cc1cc2nc(-c3ccccn3)n(C(=O)c3cccc4ccccc34)c2cc1C` [Compound 13, (5,6-Dimethyl-2-(pyridin-2-yl)-1H-benzo[d]imidazol-1-yl)(naphthalen-1-yl)methanone], the melting point lay in the range of 167.2 to 168 °C. Further, in data set [1], the inhibition at 1 µM was less than 50%.
For the molecule `O=C(c1cccc2ccccc12)n1c(-c2cccnc2)nc2ccccc21` [Compound 14, Naphthalen-1-yl-(2-(pyridin-3-yl)-1H-benzo[d]imidazol-1-yl)methanone], the melting point was in the range of 148 to 148.1 °C. In data set [1] (setting [2]), this molecule showed an IC50 of 0.18 µM.
What is called Ki is the equilibrium dissociation constant of an inhibitor or competing ligand from its target. In data set [1] (setting [3]), `O=C(c1cccc2ccccc12)n1c(-c2cccnc2)nc2cc(F)ccc21` [Compound 15, (5-Fluoro-2-(pyridin-3-yl)-1H-benzo[d]imidazol-1-yl)(naphthalen-1-yl)methanone] gave a Ki of 534 nM. In data set [1] (setting [2]), this molecule showed an IC50 of 0.979 µM.
On to `O=C(c1cccc2ccccc12)n1c(-c2cccnc2)nc2ccc(F)cc21` [Compound 16, (6-Fluoro-2-(pyridin-3-yl)-1H-benzo[d]imidazol-1-yl)(naphthalen-1-yl)methanone], for which the inhibition at 1 µM in data set [1] was less than 50%.
On to `Cc1cc2nc(-c3cccnc3)n(C(=O)c3cccc4ccccc34)c2cc1C` [Compound 17, (5,6-Dimethyl-2-(pyridin-3-yl)-1H-benzo[d]imidazol-1-yl)(naphthalen-1-yl)methanone], for which the melting point was 177.2 to 178 °C. In data set [1], the inhibition at 1 µM was less than 50%.
Regarding `O=C(c1cccc2ccccc12)n1c(-c2ccncc2)nc2ccccc21` [Compound 18, Naphthalen-1-yl-(2-(pyridin-4-yl)-1H-benzo[d]imidazol-1-yl)methanone], the melting point is 155 to 156.1 °C. The affinity in data set [1] (setting [3]) corresponds to a Ki of 37.8 ± 5.3 nM. The same molecule showed an IC50 in data set [1] (setting [2]) of 0.0693 µM.
`O=C(c1cccc2ccccc12)n1c(-c2ccncc2)nc2cc(F)ccc21` [Compound 19, (5-Fluoro-2-(pyridin-4-yl)-1H-benzo[d]imidazol-1-yl)(naphthalen-1-yl)methanone] registered a melting point of 180.7 to 181.7 °C. In addition, in data set [1], the inhibition at 1 µM is less than 50%.
`O=C(c1cccc2ccccc12)n1c(-c2ccncc2)nc2ccc(F)cc21` [Compound 20, (6-Fluoro-2-(pyridin-4-yl)-1H-benzo[d]imidazol-1-yl)(naphthalen-1-yl)methanone] had a melting point of 190.4 to 190.9 °C. Moreover, the inhibition at 1 µM in data set [1] was less than 50%.
The molecule `Cc1cc2nc(-c3ccncc3)n(C(=O)c3cccc4ccccc34)c2cc1C` [Compound 21, (5,6-Dimethyl-2-(pyridin-4-yl)-1H-benzo[d]imidazol-1-yl)(naphthalen-1-yl)methanone] gave a melting point of 167.2 to 168 °C. Further, the Ki in data set [1] (setting [3]) turned out to be 3.95 ± 0.8 nM. In data set [1] (setting [2]), the IC50 was 0.00724 µM. The molecule also gave an IC50 in data set [1] (setting [4]) of less than 0.01 µM.
Regarding `O=C(c1ccc2ccccc2c1)n1c(-c2ccccn2)nc2ccccc21` [Compound 22, Naphthalen-2-yl(2-(pyridin-2-yl)-1H-benzo[d]imidazol-1-yl)methanone], the melting point was in the range of 145 to 146 °C. In data set [1], the inhibition at 1 µM is less than 50%.
The molecule `O=C(c1ccc2ccccc2c1)n1c(-c2ccccn2)nc2ccc(F)cc21` [Compound 23, (6-Fluoro-2-(pyridin-2-yl)-1H-benzo[d]imidazol-1-yl)(naphthalen-2-yl)methanone] yielded a Ki in data set [1] (setting [3]) of 11.4 ± 0.9 nM. Besides, the IC50 in data set [1] (setting [2]) is 0.0209 µM; in data set [1] (setting [4]), approximately 0.02 µM.
The molecule `Cc1cc2nc(-c3ccccn3)n(C(=O)c3ccc4ccccc4c3)c2cc1C` [Compound 24, (5,6-Dimethyl-2-(pyridin-2-yl)-1H-benzo[d]imidazol-1-yl)(naphthalen-2-yl)methanone] came in with a melting point of 168.7 to 169.6 °C. In addition, in data set [1] (setting [3]), the inhibitory constant (Ki) stood at 28.1 ± 2.3 nM. This molecule also showed an IC50 in data set [1] (setting [2]) of 0.0515 µM.
The molecule `O=C(c1ccc2ccccc2c1)n1c(-c2cccnc2)nc2ccccc21` [Compound 25, Naphthalen-2-yl(2-(pyridin-3-yl)-1H-benzo[d]imidazol-1-yl)methanone] yielded a melting point of 148 to 148.6 °C. The inhibition at 1 µM in data set [1] is less than 50%.
Take `O=C(c1ccc2ccccc2c1)n1c(-c2cccnc2)nc2cc(F)ccc21` [Compound 26, (5-Fluoro-2-(pyridin-3-yl)-1H-benzo[d]imidazol-1-yl)(naphthalen-2-yl)methanone]: the IC50 in data set [1] (setting [5]) was 10.4 µM. In data set [1] (read-out: CB1 (Ki)), the Ki worked out at 5700 ± 200 nM.
`O=C(c1ccc2ccccc2c1)n1c(-c2cccnc2)nc2ccc(F)cc21` [Compound 27, (6-Fluoro-2-(pyridin-3-yl)-1H-benzo[d]imidazol-1-yl)(naphthalen-2-yl)methanone]: the melting point was 167.2 to 167.7 °C. Besides, in data set [1] (setting [5]), the IC50 is 1.77 µM. In data set [1] (read-out: CB1 (Ki)), the Ki was found to be 963 ± 155 nM.
`Cc1cc2nc(-c3cccnc3)n(C(=O)c3ccc4ccccc4c3)c2cc1C` [Compound 28, (5,6-Dimethyl-2-(pyridin-3-yl)-1H-benzo[d]imidazol-1-yl)(naphthalen-2-yl)methanone] displayed a melting point of 166.7 to 166.9 °C. Further, affinity in data set [1] (setting [3]) was put at a Ki of 567 ± 27.8 nM. Besides, the IC50 in data set [1] (setting [2]) was 1.04 µM.
Molecule `O=C(c1ccc2ccccc2c1)n1c(-c2ccncc2)nc2ccccc21` [Compound 29, Naphthalen-2-yl(2-(pyridin-4-yl)-1H-benzo[d]imidazol-1-yl)methanone] showed a melting point of 145 to 146.1 °C. Moreover, in data set [1] (setting [5]), the IC50 was 8.22 µM. Besides, the Ki in data set [1] (read-out: CB1 (Ki)) was 4490 ± 133 nM.
Molecule `O=C(c1ccc2ccccc2c1)n1c(-c2ccncc2)nc2cc(F)ccc21` [Compound 30, (5-Fluoro-2-(pyridin-4-yl)-1H-benzo[d]imidazol-1-yl)(naphthalen-2-yl)methanone] showed a melting point of 195.7 to 200.6 °C. The same molecule yielded a Ki in data set [1] (setting [3]) of 1030 ± 57.9 nM. In data set [1] (setting [2]), this molecule showed an IC50 of 1.88 µM.
`O=C(c1ccc2ccccc2c1)n1c(-c2ccncc2)nc2ccc(F)cc21` [Compound 31, (6-Fluoro-2-(pyridin-4-yl)-1H-benzo[d]imidazol-1-yl)(naphthalen-2-yl)methanone]: in data set [1] (setting [3]), the Ki is 5.55 ± 0.9 nM. Moreover, the IC50 is 0.0102 µM in data set [1] (setting [2]) and less than 0.01 µM in data set [1] (setting [4]).
Turning to `Cc1cc2nc(-c3ccncc3)n(C(=O)c3ccc4ccccc4c3)c2cc1C` [Compound 32, (5,6-Dimethyl-2-(pyridin-4-yl)-1H-benzo[d]imidazol-1-yl)(naphthalen-2-yl)methanone], the melting point fell in the range of 160.4 to 160.9 °C. In addition, the inhibition at 1 µM in data set [1] was less than 50%.
For the molecule `c1ccc(-c2nc3ccccc3n2Cc2cccc3ccccc23)nc1` [Compound 33, 1-(Naphthalen-1-ylmethyl)-2-(pyridin-2-yl)-1H-benzo[d]imidazole], the melting point was in the range of 150.7 to 151.6 °C. The inhibition at 1 µM in data set [1] is less than 50%.
As to `Fc1ccc2c(c1)nc(-c1ccccn1)n2Cc1cccc2ccccc12` [Compound 34, 5-Fluoro-1-(naphthalen-1-ylmethyl)-2-(pyridin-2-yl)-1H-benzo[d]imidazole], the melting point fell in the range of 155.7 to 155.9 °C. Also, the inhibition at 1 µM in data set [1] is less than 50%.
`Fc1ccc2nc(-c3ccccn3)n(Cc3cccc4ccccc34)c2c1` [Compound 35, 6-Fluoro-1-(naphthalen-1-ylmethyl)-2-(pyridin-2-yl)-1H-benzo[d]imidazole] had a melting point of 160.7 to 161.1 °C. Moreover, the inhibition at 1 µM in data set [1] was less than 50%.
The molecule `Cc1cc2nc(-c3ccccn3)n(Cc3cccc4ccccc34)c2cc1C` [Compound 36, 5,6-Dimethyl-1-(naphthalen-1-ylmethyl)-2-(pyridin-2-yl)-1H-benzo[d]imidazole] came in with a melting point of 155.5 to 156.1 °C. In data set [1] (setting [3]), this molecule registered an inhibitory constant (Ki) of 13 ± 1.1 nM. The IC50 in data set [1] (setting [2]) was 0.0239 µM. In data set [1] (setting [4]), the IC50 is approximately 0.02 µM.
Consider `c1cncc(-c2nc3ccccc3n2Cc2cccc3ccccc23)c1` [Compound 37, 1-(Naphthalen-1-ylmethyl)-2-(pyridin-3-yl)-1H-benzo[d]imidazole], for which the melting point was in the range of 160.2 to 161.1 °C. In data set [1] (setting [3]), the Ki was 75.9 ± 16.6 nM. In addition, the IC50 in data set [1] (setting [2]) was 0.139 µM.
For `Cc1cc2nc(-c3ccccn3)n(Cc3ccc4ccccc4c3)c2cc1C` [Compound 48, 5,6-Dimethyl-1-(naphthalen-2-ylmethyl)-2-(pyridin-2-yl)-1H-benzo[d]imidazole], in data set [1] (setting [3]), the affinity corresponds to a Ki of 47.4 ± 11.1 nM. Besides, in data set [1] (setting [2]), the IC50 was 0.0869 µM.
In the case of `Fc1ccc2nc(-c3cccnc3)n(Cc3ccc4ccccc4c3)c2c1` [Compound 51, 6-Fluoro-1-(naphthalen-2-ylmethyl)-2-(pyridin-3-yl)-1H-benzo[d]imidazole], the Ki in data set [1] (setting [3]) worked out at 10.7 ± 2.8 nM. For the same molecule, the IC50 in data set [1] (setting [2]) was 0.0196 µM; in data set [1] (setting [4]) it was approximately 0.02 µM.
As to `c1ccc2cc(Cn3c(-c4ccncc4)nc4ccccc43)ccc2c1` [Compound 53, 1-(Naphthalen-2-ylmethyl)-2-(pyridin-4-yl)-1H-benzo[d]imidazole], the IC50 in data set [1] (setting [5]) is 0.851 µM. The Ki in data set [1] (read-out: CB1 (Ki)) was determined as 464 ± 30.3 nM.
